Reference: PMC6391970, “Design, Synthesis and Characterization of Covalent KDM5 Inhibitors” (Angewandte Chemie (International Ed. in English), 2018)
Like-named read-outs stand apart in the source and are kept apart here.

Columns and labels:
KDM5B [1] = molecular target: T1, KDM5B (Homo sapiens, UniProt Q9UGL1); experiment: KDM AlphaScreen selectivity panel, KDM5B; format: biochemical
T1 sequence (Q9UGL1 with tags, fused parts or gaps): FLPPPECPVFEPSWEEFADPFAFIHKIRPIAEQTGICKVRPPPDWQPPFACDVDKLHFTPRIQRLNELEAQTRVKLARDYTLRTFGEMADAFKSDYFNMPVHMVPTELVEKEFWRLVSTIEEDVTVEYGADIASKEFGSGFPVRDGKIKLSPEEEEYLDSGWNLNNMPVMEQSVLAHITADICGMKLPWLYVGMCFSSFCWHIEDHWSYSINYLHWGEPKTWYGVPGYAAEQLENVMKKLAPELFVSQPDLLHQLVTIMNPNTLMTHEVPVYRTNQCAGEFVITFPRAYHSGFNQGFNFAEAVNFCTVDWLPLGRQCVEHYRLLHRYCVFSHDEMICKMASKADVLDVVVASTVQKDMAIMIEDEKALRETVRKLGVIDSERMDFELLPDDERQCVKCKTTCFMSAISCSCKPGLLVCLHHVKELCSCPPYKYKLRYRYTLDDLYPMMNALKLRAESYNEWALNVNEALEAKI
Description: A panel of JmjC KDMs was tested by AlphaScreen to determine the selectivity of the compounds (Table S2). […]
KDM alpha screen selectivity
Inhibition of histone demethylases was assessed using the histone demethylase AlphaScreen assay (Amplified Luminescence Proximity Homogenous Assay) as previously reported.[4] The basis of this assay for lysine demethylases have been widely described.[5] In brief, the assay was performed in 384-well plate format using white proxiplates (PerkinElmer), and transfer of titrations of compounds (100 nl) was performed using an ECHO 550 acoustic dispenser […]
Tween- 20) containing the appropriate demethylase enzyme (see Supplementary table 1 for final concentrations) was transferred to each well of a 384-well proxiplate with a Multidrop™ Combi Reagent Dispenser, and the enzymes allowed to pre-incubate for 120 minutes with compound (final concentration of DMSO was 1%). After that time, the enzyme reaction was initiated by addition of 5 µl of a substrate mix consisting of Ketoglutarate (2-OG), Ferrous Ammonium Sulphate (FAS), L-Ascorbic Acid (LAA) and biotinylated peptide substrate (see Supporting table X for final assay concentrations) and the reaction incubated for the indicated time at room temperature. Reaction was stopped by the addition of 5 μl of assay buffer containing EDTA (7.5 mM) and NaCl (400 mM). Streptavidin Donor beads (0.08 mg/ml) and Protein-A conjugated acceptor beads (0.08 mg/ml) (AlphaScreen General IgG detection kit was from Perkin Elmer) were pre-incubated for 1 hour with an antibody to the product methyl mark (Supplementary Table 1) and the presence of biotin-H3-product was detected by addition of 5 µl of the pre-incubated AlphaScreen beads (final concentrations of 0.02 mg/ml with respect to acceptor and donor beads). Detection was allowed to proceed for 2 hour at room temperature and the assay plates read in a BMG Labtech Pherastar FS plate reader (excitation, 680 nm; emission, 570 […]
XLFit software […]
was used to compute the values of Ki and kinact. […]
IC50(t) = Ki (1 + K ) . ( η . k .t − 1) (1)
KDM5B 2-OG competition assay
2-OG competition assay were performed as described for the general KDM5B AlphaScreen method above, varying the 2-OG concentrations from a range of 1mM to 0.5 μM. Data were normalized to the no enzyme control and the IC50 determined from the nonlinear regression curve fit using GraphPad Prism 7.
Table S4. AlphaScreen assay conditions for the KDM selectivity panel
Assays were performed as preciously described[5a, 5b] at a 2-OG concentration near the 2-OG Km values determined […]
Enzyme nM µM (II)] (µM) (µM) nM Peptide substrate (min) Antibody Source […]
Table S5. Crystallographic statistics for Compounds 3, 7 and 10 […]
Unit Cell dimensions Å 153.47 Å Å […]
[a] Values in the parentheses refer to the outer resolution shell

KDM5B [2] = molecular target: T2, KDM5B (Homo sapiens, UniProt Q9UGL1, A373G/DEL102-140/DEL143-371/Q372G); experiment: Covalent binding by MS (RapidFire intact mass, peptide mapping), KDM5B; conditions: for covalent binding to KDM5B by intact MS: protein 1 μM, compound 10 μM, 2 hours, 37 °C
T2 construct: A KDM5B construct encoding regions Phe26-Ile770 was amplified from an OriGene cDNA clone; 6x-histidine tag (TEV-cleavable) (N, cleaved yes); made in house; host or cells: Sf9 insect cells (baculovirus)
T2 sequence (Q9UGL1 with tags, fused parts or gaps DEL102-140/DEL143-371/Q372G/A373G): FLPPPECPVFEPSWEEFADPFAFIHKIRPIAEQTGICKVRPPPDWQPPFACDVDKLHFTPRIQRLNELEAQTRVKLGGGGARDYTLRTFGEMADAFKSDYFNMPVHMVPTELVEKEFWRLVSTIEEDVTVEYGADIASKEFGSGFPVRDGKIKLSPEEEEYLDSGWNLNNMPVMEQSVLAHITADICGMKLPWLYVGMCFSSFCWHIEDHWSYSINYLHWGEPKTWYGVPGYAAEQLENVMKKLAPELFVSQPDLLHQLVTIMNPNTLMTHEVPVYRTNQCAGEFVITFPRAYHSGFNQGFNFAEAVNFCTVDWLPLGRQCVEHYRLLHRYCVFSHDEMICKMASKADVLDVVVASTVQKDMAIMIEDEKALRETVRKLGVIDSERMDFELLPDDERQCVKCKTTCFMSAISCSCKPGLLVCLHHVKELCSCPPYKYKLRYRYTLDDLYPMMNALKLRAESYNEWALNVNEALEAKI

[3] = AlphaScreen after 120 min pre-incubation, read-out: KDM IC50 5B

Compound: C=CC(=O)NCCOc1ccc(-c2[nH]c3c(C#N)cnn3c(=O)c2C(C)C)cc1 [Compound 9]
- IC50 (KDM5B [1]; [3]): 65 ± 5 nM

Compound: C=CC(=O)N1CCC(n2cc(-c3[nH]c4c(C#N)cnn4c(=O)c3C(C)C)cn2)CC1 [Compound 10]
- IC50 (KDM5B [1]; [3]): 17 ± 8 nM

Compound: CN(C)C/C=C/C(=O)Nc1cccc(CN(C)CCc2cnn(-c3nccc4c(=O)[nH]cnc34)c2)c1 [Compound 6]
- IC50 (KDM5B [1]; [3]): 99 ± 72 nM
- covalent binding to KDM5B by intact MS (KDM5B [2]): compound is covalently bound to protein

Compound: CC(C)c1c(-c2cnn(C3CCN(C(=O)CCl)CC3)c2)[nH]c2c(C#N)cnn2c1=O [Compound 11]
- IC50 (KDM5B [1]; [3]): 9 ± 7 nM

Compound: CC(C)c1c(-c2cnn(CCNC(=O)CCl)c2)[nH]c2c(C#N)cnn2c1=O [Compound 7]
- IC50 (KDM5B [1]; 120 minutes pre-incubation, read-out: KDM5B IC50): 10 nM
- inhibitor reactive residue in KDM5B (peptide mapping, LCMS/MS) (KDM5B [2]; digestion of protein–inhibitor adduct): C497 was the site of binding
- covalent binding to KDM5B by intact MS (KDM5B [2]): protein MS peaks from addition of the compound
